Reference: patent publication US20220354949A1, “NOVEL COMPOUNDS” (XENIOPRO GmbH, priority 2018, published 2022)

How the values were obtained:
Format in all cases: cell-based
[1] = system: A-431 cells (human epidermoid squamous cell carcinoma cells); assay: Proliferation assay (alamarBlue) with A-431 cells; conditions: 20 μM
From the text: (§1) The antiproliferative activities of compounds falling under formula (Ia), (Ib) and (Ic), respectively, were investigated on cells or cell lines originating from a disorder of the haematopoietic system, including the myeloid cell compartment and the lymphoid cell compartment (T-cells and B-cells), the neuroendocrine system, the cervix, the breast, the ovaries, the lung, the gastrointestinal tract, and the mucosal epithelium, as well as from the skin epithelium and from the muscle. To this end, HL-60 cells, NB-4 cells, HH cells, RPMI-8402 cells, TANOUE cells, TT cells, HeLa cells, MDA-MB-231 cells, FU-OV-1 cells, LOU-NH91 cells, 23132/87 cells, CAL-27 cells, BHY cells, SCC-25 cells, A-431 cells, human primary epidermal keratinocytes (HPEK), and C2C12 cells were seeded into 96-well plates suitable for fluorescence assays (CORNING #3598) at following initial cell numbers: 1000 cells per well for HL-60; 1000 cells per well for NB-4; 5000 cells per well for HH; 5000 cells per well for RPMI-8402; 1500 cells per well for TANOUE; 9000 cells per well for TT; 2000 cells per well for HeLa; 3000 cells per well for MDA-MB-231; 3000 cells per well for FU-OV-1; 4000 cells per well for LOU-NH91; 2000 cells per well for 23132/87; 2000 cells per well for CAL-27; 1500 cells per well for BHY; 1500 cells per well for SCC-25; 700 cells per well for A-431; 1000 cells per well for HPEK; 500 cells per well for C2C12. The cells were treated with compounds at indicated final concentrations (diluted from the 1000× stock-solutions in DMSO to a final DMSO concentration of 0.1% v/v in H2O (Water For Injection, WFI, Fisherscientific #10378939)) or with the empty carrier DMSO at 0.1% v/v as control for 5 days. At day 5 after starting the treatments the cells were subjected to the alamarBlue® Proliferation Assay (Bio-Rad Serotec GmbH, BUF012B) according to the protocol of the manufacturer. The readout was taken with a multi-well plate-reader in the fluorescence mode with applying a filter for excitation at 560 nm (band width 10 nm) and for emission at 590 nm (band width 10 nm). Control treatments for growth inhibition with commercial compounds such as Methotrexate (MTREX) and Resveratrol (RES) were included on every plate. Some of the test compounds of the present invention were obtained and applied as their salts. According cases are indicated in the column “Specification” in Table 55 to Table 92 and by their sum formula in Table 93.
(§2) The assays were performed in duplicate or more replicates of independent single experiments each containing a six-fold replicate for every condition. For every individual plate, the measured fluorescence intensity values of the conditions with compound treatment were normalized against the corresponding equally weighted arithmetic mean of the fluorescence intensity values of the six DMSO treated control wells in order to obtain the relative values to a baseline level of 1.0.
(§3) Two independent outlier analyses were performed according to the methods by Peirce and Chauvenet (Ross, Journal of Engineering Technology 2003, 1-12). Outliers confirmed by at least one of the methods were excluded from the calculations but not more than one value out of six per compound within a single experiment. The weighted arithmetic mean (here abbreviated as AVEw) for each compound was calculated from the normalized values over all independent replicates of the single experiments comprising the six replicates each. The corresponding standard deviation for the weighted arithmetic mean was calculated according to the method described by Bronstein et al. (Bronstein, Semendjajew, Musiol, Müihlig, Taschenbuch der Mathematik, 5th edition 2001 (German), publisher: Verlag Harri Deutsch, Frankfurt am Main and Thun) and was combined with the Gauß' error propagation associated with the performed calculation for the normalization. The resulting standard deviation is herein referred to as “combined standard deviation”. […]

[2] = system: TT cells (human medullary thyroid carcinoma cells); assay: Proliferation assay (alamarBlue) with TT cells; conditions: compound at 20 μM
From the text: as §1, §2, §3

[3] = system: HH cells (human cutaneous T-cell lymphoma cells); assay: Proliferation assay (alamarBlue) with HH cells; conditions: 20 μM
From the text: as §1, §2, §3

[4] = system: BHY cells (human oral squamous cell carcinoma cells); assay: Proliferation assay (alamarBlue) with BHY cells; design: key: fluorescence relative to mean of DMSO control wells = 1.0; conditions: 20 μM
From the text: as §1, §2, §3

[5] = system: HL-60 cells (human acute myeloid leukemia cells); assay: Proliferation assay (alamarBlue) with HL-60 cells; conditions: 20 μM
From the text: as §1, §2, §3

[6] = system: NB-4 cells (human acute promyelocytic leukemia cells); assay: Proliferation assay (alamarBlue) with NB-4 cells; conditions: 20 μM
From the text: as §1, §2, §3

[7] = system: C2C12 cells (murine myoblast cells); assay: Proliferation assay (alamarBlue) with C2C12 cells; conditions: compounds and controls at 20 μM
From the text: The antiproliferative activities of compounds falling under formula (Ia), (Ib) and (Ic), respectively, were investigated on cells or cell lines originating from a disorder of the haematopoietic system, including the myeloid cell compartment and the lymphoid cell compartment (T-cells and B-cells), the neuroendocrine system, the cervix, the breast, the ovaries, the lung, the gastrointestinal tract, and the mucosal epithelium, as well as from the skin epithelium and from the muscle. To this end, HL-60 cells, NB-4 cells, HH cells, RPMI-8402 cells, TANOUE cells, TT cells, HeLa cells, MDA-MB-231 cells, FU-OV-1 cells, LOU-NH91 cells, 23132/87 cells, CAL-27 cells, BHY cells, SCC-25 cells, A-431 cells, human primary epidermal keratinocytes (HPEK), and C2C12 cells were seeded into 96-well plates suitable for fluorescence assays (CORNING #3598) at following initial cell numbers: 1000 cells per well for HL-60; 1000 cells per well for NB-4; 5000 cells per well for HH; 5000 cells per well for RPMI-8402; 1500 cells per well for TANOUE; 9000 cells per well for TT; 2000 cells per well for HeLa; 3000 cells per well for MDA-MB-231; 3000 cells per well for FU-OV-1; 4000 cells per well for LOU-NH91; 2000 cells per well for 23132/87; 2000 cells per well for CAL-27; 1500 cells per well for BHY; 1500 cells per well for SCC-25; 700 cells per well for A-431; 1000 cells per well for HPEK; 500 cells per well for C2C12. […] The readout was taken with a multi-well plate-reader in the fluorescence mode with applying a filter for excitation at 560 nm (band width 10 nm) and for emission at 590 nm (band width 10 nm). […]
as §2, with “1.0. […]” for “1.0.”

[8] = system: RPMI-8402 cells (human T cell acute lymphoblastic leukemia cells); assay: Proliferation assay (alamarBlue) with RPMI-8402 cells; conditions: 20 μM
From the text: as §1, §2, §3

[9] = system: FU-OV-1 cells (human ovarian carcinoma cells); assay: Proliferation assay (alamarBlue) with FU-OV-1 cells; conditions: compound at 20 μM
From the text: as §1, §2, §3

[10] = system: TANOUE cells (human B cell leukemia cells); assay: Proliferation assay (alamarBlue) with TANOUE cells; conditions: compound at 20 μM
From the text: as §1, §2, §3

[11] = system: LOU-NH91 cells (human lung squamous cell carcinoma cells); assay: Proliferation assay (alamarBlue) with LOU-NH91 cells; conditions: 20 μM
From the text: as §1, §2, §3

[12] = system: HeLa cells (human cervical adenocarcinoma cells); assay: Proliferation assay (alamarBlue) with HeLa cells; conditions: compound at 20 μM
From the text: as §1, §2, §3

CN(Cc1cnc2nc(N)nc(N)c2n1)c1ccc(C(=O)N[C@@H](CCC(=O)O)C(=O)O)cc1 [MTREX, Methotrexate]
Activity Range (weighted arithmetic mean AVEw of normalized fluorescence intensity, relative to DMSO basis level 1.0) ([1]; Table 84 (novel compounds)): 0.2 ± 0.1
Activity Range (weighted arithmetic mean AVEw of normalized fluorescence intensity, relative to DMSO basis level 1.0) ([1]; Table 85 (compounds disclosed in PCT/EP2018/054686)): 0.2 ± 0.1
Activity Range: weighted arithmetic mean (AVEw) of normalized fluorescence intensity relative to DMSO basis level 1.0 ([2]; Table 65 (novel compounds)): 1.0 ± 0.0
Activity Range: weighted arithmetic mean (AVEw) of normalized fluorescence intensity relative to DMSO basis level 1.0 ([2]; Table 66 (compounds of PCT/EP2018/054686)): 1 ± 0.0
Activity Range: weighted arithmetic mean (AVEw) of normalized fluorescence intensity, proliferation assay with HH cells ([3]; relative to DMSO basis level 1.0, Table 59 (novel compounds)): 0.4 ± 0.1
Activity Range: weighted arithmetic mean (AVEw) of normalized fluorescence intensity, proliferation assay with HH cells ([3]; relative to DMSO basis level 1.0, Table 60 (compounds disclosed in PCT/EP2018/054686)): 0.4 ± 0.1
Activity Range (weighted arithmetic mean AVEw of normalized fluorescence intensity, relative to DMSO basis level 1.0) ([4]; Table 79 (novel compounds)): 0.3 ± 0.0
Activity Range (weighted arithmetic mean AVEw of normalized fluorescence intensity, relative to DMSO basis level 1.0) ([4]; Table 80 (compounds disclosed in PCT/EP2018/054686)): 0.3 ± 0.0
Activity Range (weighted arithmetic mean AVEw of normalized fluorescence intensity, relative to DMSO basis level 1.0) ([4]; Table 81 (compounds disclosed in PCT/EP2018/054686)): 0.3 ± 0.0
Activity Range: weighted arithmetic mean (AVEw) of normalized fluorescence intensity, proliferation assay with HL-60 cells ([5]; relative to DMSO basis level 1.0, Table 55 (novel compounds)): 0.1 ± 0.1
Activity Range: weighted arithmetic mean (AVEw) of normalized fluorescence intensity, proliferation assay with HL-60 cells ([5]; relative to DMSO basis level 1.0, Table 56 (compounds disclosed in PCT/EP2018/054686)): 0.1 ± 0.1
Activity Range: weighted arithmetic mean (AVEw) of normalized fluorescence intensity, proliferation assay with NB-4 cells ([6]; relative to DMSO basis level 1.0, Table 57 (novel compounds)): 0.1 ± 0.0
Activity Range: weighted arithmetic mean (AVEw) of normalized fluorescence intensity, proliferation assay with NB-4 cells ([6]; relative to DMSO basis level 1.0, Table 58 (compounds disclosed in PCT/EP2018/054686)): 0.1 ± 0.0
Activity Range: weighted arithmetic mean (AVEw) of normalized fluorescence intensity, relative to DMSO basis level of 1.0 [7]: 0.1 ± 0.0
Activity Range: weighted arithmetic mean (AVEw) of normalized fluorescence intensity, proliferation assay with RPMI-8402 cells ([8]; relative to DMSO basis level 1.0, Table 61 (novel compounds)): 0.1 ± 0.0
Activity Range: weighted arithmetic mean (AVEw) of normalized fluorescence intensity, proliferation assay with RPMI-8402 cells ([8]; relative to DMSO basis level 1.0, Table 62 (compounds disclosed in PCT/EP2018/054686)): 0.1 ± 0.0
Activity Range: weighted arithmetic mean (AVEw) of normalized fluorescence intensity relative to DMSO basis level 1.0 ([9]; Table 71 (novel compounds)): 1.0 ± 0.0
Activity Range: weighted arithmetic mean (AVEw) of normalized fluorescence intensity relative to DMSO basis level 1.0 ([9]; Table 72 (compounds of PCT/EP2018/054686)): 1.0 ± 0.0
activity at 20 µM ([10]; Homo sapiens, B-cell, Table 63 (novel compounds), read-out: Activity Range: weighted arithmetic mean (AVEw) of normalized fluorescence intensity relative to DMSO basis level 1.0): 10%
Activity Range: weighted arithmetic mean (AVEw) of normalized fluorescence intensity relative to DMSO basis level 1.0 ([10]; Table 64 (compounds of PCT/EP2018/054686)): 0.1 ± 0.0
Activity Range (weighted arithmetic mean AVEw of normalized fluorescence intensity, relative to DMSO basis level 1.0) ([11]; Table 73 (novel compounds)): 0.5 ± 0.1
Activity Range (weighted arithmetic mean AVEw of normalized fluorescence intensity, relative to DMSO basis level 1.0) ([11]; Table 74 (compounds disclosed in PCT/EP2018/054686)): 0.5 ± 0.1
Activity Range: weighted arithmetic mean (AVEw) of normalized fluorescence intensity relative to DMSO basis level 1.0 ([12]; Table 67 (novel compounds)): 0.4 ± 0.0
Activity Range: weighted arithmetic mean (AVEw) of normalized fluorescence intensity relative to DMSO basis level 1.0 ([12]; Table 68 (compounds of PCT/EP2018/054686)): 0.4 ± 0.0
